Results published in US5840684A, “Glycopeptide antibiotic derivatives” (Eli Lilly and Company, priority 1995, dated 1998).
Values after ≈ are worked out from the molar mass of the structure shown.

Experiments:
[1] = test system: Staphylococcus aureus S13E; format: cell-based
Procedure: (§1) The MIC's were determined using a standard broth micro-dilution assay.

[2] = test system: Staphylococcus aureus SA1199B; format: cell-based
Procedure: as §1

Entercoccus faecium 276 = test: broth micro-dilution MIC; format: cell-based
Procedure: as §1

[3] = test system: Staphylococcus aureus 446; test: broth micro-dilution MIC; format: cell-based
Procedure: as §1

[4] = test system: Staphylococcus aureus 447; test: broth micro-dilution MIC; format: cell-based
Procedure: as §1

[5] = test system: Staphylococcus aureus 489; test: broth micro-dilution MIC; format: cell-based
Procedure: as §1

[6] = test system: Staphylococcus aureus 491; test: broth micro-dilution MIC; format: cell-based
Procedure: as §1

[7] = test system: Staphylococcus aureus SA1199A; test: broth micro-dilution MIC; format: cell-based
Procedure: as §1

[8] = test system: Staphylococcus aureus SA1199; test: broth micro-dilution MIC; format: cell-based
Procedure: as §1

[9] = test system: Staphylococcus aureus X400; test: broth micro-dilution MIC; format: cell-based
Procedure: as §1

[10] = test system: Staphylococcus aureus X778; test: broth micro-dilution MIC; format: cell-based
Procedure: as §1

[11] = test system: Streptococcus pyogenes C203; test: broth micro-dilution MIC; format: cell-based
Procedure: as §1

Entercoccus faecium 180 = test: broth micro-dilution MIC; format: cell-based; details: Entercoccus faecium 180
Procedure: (§2) The formula I compounds have in vitro and in vivo activity against Gram-positive pathogenic bacteria. The MIC's were determined using a standard broth micro-dilution assay.

Entercoccus faecium 2041 = test: broth micro-dilution MIC; format: cell-based; details: Entercoccus faecium 2041
Procedure: as §2

[12] = test system: Enterococcus gallinarum 245; test: broth micro-dilution MIC; format: cell-based; details: Enterococcus gallinarum 245
Procedure: as §2

[13] = test system: Haemophilus influenzae RD; test: broth micro-dilution MIC; format: cell-based; details: Haemophilus influenzae RD
Procedure: as §2

[14] = test system: Staphylococcus epidermidis 270; test: broth micro-dilution MIC; format: cell-based
Procedure: as §2

[15] = test system: Staphylococcus haemolyticus 105; test: broth micro-dilution MIC; format: cell-based
Procedure: as §2

[16] = test system: Staphylococcus haemolyticus 415; test: broth micro-dilution MIC; format: cell-based
Procedure: as §2

[17] = test system: Streptococcus pneumoniae P1; test: broth micro-dilution MIC; format: cell-based
Procedure: as §2

[18] = test system: vancomycin-resistant enterococci; test: broth micro-dilution, mean geometric MIC; format: cell-based, Enterococcus faecium and Enterococcus faecalis; details: enterococci, 24-hour incubation
[19] = test system: vancomycin-susceptible enterococci; test: broth micro-dilution, mean geometric MIC; format: cell-based, Enterococcus faecium and Enterococcus faecalis; details: enterococci, 24-hour incubation
[20] = test system: Entercoccus faecium 180-1; test: broth micro-dilution MIC; format: cell-based
Procedure: as §1

Structure (SMILES) | MIC [1] | MIC [2] | MIC (Entercoccus faecium 276) | MIC [3] | MIC [4] | MIC [5] | MIC [6] | MIC [8] | MIC [9] | MIC [10] | MIC (Entercoccus faecium 180) | MIC (Entercoccus faecium 2041) | MIC [12] | MIC [13] | MIC [14] | MIC [15] | MIC [16] | MIC [17] | mean geometric MIC, Vancomycin Resistant Strains [18] | mean geometric MIC, Vancomycin Sensitive Strains [19] | also measured
CNC(CC(C)C)C(=O)NC1C(=O)NC(CC(N)=O)C(=O)NC2C(=O)NC3C(=O)NC(C(=O)NC(C(=O)O)c4cc(O)cc(O)c4-c4cc3ccc4O)C(OC3CC(C)(N)C(O)C(C)O3)c3ccc(c(Cl)c3)Oc3cc2cc(c3OC2OC(CO)C(O)C(O)C2OC2CC(C)(NCc3ccc(Oc4ccc(Cl)c(Cl)c4)cc3)C(O)C(C)O2)Oc2ccc(cc2Cl)C1O (stereo not drawn) [Compound 81] | 0.5 µg/mL (≈ 0.271 µM) | 1 µg/mL (≈ 0.542 µM) | ≤ 0.06 µg/mL | 2 µg/mL (≈ 1.08 µM) | 2 µg/mL (≈ 1.08 µM) | 2 µg/mL (≈ 1.08 µM) | 1 µg/mL (≈ 0.542 µM) | 2 µg/mL (≈ 1.08 µM) | 1 µg/mL (≈ 0.542 µM) | 1 µg/mL (≈ 0.542 µM) | ≤ 0.06 µg/mL | ≤ 0.06 µg/mL | 0.25 µg/mL (≈ 0.136 µM) | 16 µg/mL (≈ 8.68 µM) | 1 µg/mL (≈ 0.542 µM) | 1 µg/mL (≈ 0.542 µM) | 4 µg/mL (≈ 2.17 µM) | ≤ 0.06 µg/mL | 1.0 µg/mL | 0.042 µg/mL | MIC [7]: 0.5 µg/mL (≈ 0.271 µM); MIC [11]: ≤ 0.06 µg/mL
CNC(CC(C)C)C(=O)NC1C(=O)NC(CC(N)=O)C(=O)NC2C(=O)NC3C(=O)NC(C(=O)NC(C(=O)O)c4cc(O)cc(O)c4-c4cc3ccc4O)C(OC3CC(C)(N)C(O)C(C)O3)c3ccc(c(Cl)c3)Oc3cc2cc(c3OC2OC(CO)C(O)C(O)C2OC2CC(C)(NCc3ccc(-c4ccccc4[N+](=O)[O-])c([N+](=O)[O-])c3)C(O)C(C)O2)Oc2ccc(cc2Cl)C1O (stereo not drawn) [Compound 213] | ≤ 0.06 µg/mL | ≤ 0.06 µg/mL | ≤ 0.06 µg/mL | ≤ 0.06 µg/mL |  | ≤ 0.06 µg/mL | ≤ 0.06 µg/mL | ≤ 0.06 µg/mL | ≤ 0.06 µg/mL | ≤ 0.06 µg/mL | 0.125 µg/mL (≈ 0.0676 µM) | ≤ 0.06 µg/mL | 2 µg/mL (≈ 1.08 µM) | 32 µg/mL (≈ 17.3 µM) | 0.5 µg/mL (≈ 0.27 µM) | 0.5 µg/mL (≈ 0.27 µM) | 2 µg/mL (≈ 1.08 µM) | ≤ 0.06 µg/mL | 1.0 µg/mL | 0.55 µg/mL | MIC [20]: ≤ 0.06 µg/mL; MIC [7]: ≤ 0.06 µg/mL
C=CCCCCCCCCNC1(C)CC(OC2C(Oc3c4cc5cc3Oc3ccc(cc3Cl)C(OC3CC(C)(N)C(O)C(C)O3)C3NC(=O)C(NC(=O)C5NC(=O)C(CC(N)=O)NC(=O)C(NC(=O)C(CC(C)C)NC)C(O)c5ccc(c(Cl)c5)O4)c4ccc(O)c(c4)-c4c(O)cc(O)cc4C(C(=O)O)NC3=O)OC(CO)C(O)C2O)OC(C)C1O (stereo not drawn) [Compound 214] | 1 µg/mL (≈ 0.578 µM) | 1 µg/mL (≈ 0.578 µM) | 0.25 µg/mL (≈ 0.144 µM) | 1 µg/mL (≈ 0.578 µM) | 2 µg/mL (≈ 1.16 µM) | 1 µg/mL (≈ 0.578 µM) | 1 µg/mL (≈ 0.578 µM) | 0.5 µg/mL (≈ 0.289 µM) | 0.5 µg/mL (≈ 0.289 µM) | 1 µg/mL (≈ 0.578 µM) | 0.25 µg/mL (≈ 0.144 µM) | 0.125 µg/mL (≈ 0.0722 µM) | 2 µg/mL (≈ 1.16 µM) | 32 µg/mL (≈ 18.5 µM) | ≤ 0.06 µg/mL | 1 µg/mL (≈ 0.578 µM) | 2 µg/mL (≈ 1.16 µM) | ≤ 0.06 µg/mL | 0.71 µg/mL | 0.024 µg/mL | MIC [20]: ≤ 0.06 µg/mL; MIC [7]: 0.5 µg/mL (≈ 0.289 µM)
CC#CCCCCCCCCCCNC1(C)CC(OC2C(Oc3c4cc5cc3Oc3ccc(cc3Cl)C(OC3CC(C)(N)C(O)C(C)O3)C3NC(=O)C(NC(=O)C5NC(=O)C(CC(N)=O)NC(=O)C(NC(=O)C(CC(C)C)NC)C(O)c5ccc(c(Cl)c5)O4)c4ccc(O)c(c4)-c4c(O)cc(O)cc4C(C(=O)O)NC3=O)OC(CO)C(O)C2O)OC(C)C1O (stereo not drawn) [Compound 199] | 0.5 µg/mL (≈ 0.282 µM) | 1 µg/mL (≈ 0.565 µM) | 1 µg/mL (≈ 0.565 µM) | 0.5 µg/mL (≈ 0.282 µM) | 1 µg/mL (≈ 0.565 µM) | 2 µg/mL (≈ 1.13 µM) | 0.5 µg/mL (≈ 0.282 µM) | 1 µg/mL (≈ 0.565 µM) | 2 µg/mL (≈ 1.13 µM) | 1 µg/mL (≈ 0.565 µM) | 0.5 µg/mL (≈ 0.282 µM) | ≤ 0.06 µg/mL | 4 µg/mL (≈ 2.26 µM) | 32 µg/mL (≈ 18.1 µM) | 0.5 µg/mL (≈ 0.282 µM) | 2 µg/mL (≈ 1.13 µM) | 4 µg/mL (≈ 2.26 µM) | ≤ 0.06 µg/mL | 1.4 µg/mL | 0.036 µg/mL | MIC [20]: ≤ 0.06 µg/mL; MIC [11]: ≤ 0.06 µg/mL
